Test results published in patent US20220298146A1, “HETEROCYCLIC DERIVATIVE AND USE THEREOF” (Transthera Sciences (Nanjing), Inc., priority 2019, published 2022).

What was measured:
H1299 cell pAxl = molecular target: T1, H1299 cell pAxl (Homo sapiens, UniProt P30530); test: Inhibitory activity on cell pAxl (H1299 cells, hGAS6 stimulation, Western Blot); type: cell-based; details: hGAS6 200 ng/mL, tested at 1.1, 3.3, 10 and 30 nM, read-out: Inhibitory Activity on Cell pAx1, IC50
T1 construct: endogenous in cells; host or cells: H1299
T1 sequence (P30530 26-894): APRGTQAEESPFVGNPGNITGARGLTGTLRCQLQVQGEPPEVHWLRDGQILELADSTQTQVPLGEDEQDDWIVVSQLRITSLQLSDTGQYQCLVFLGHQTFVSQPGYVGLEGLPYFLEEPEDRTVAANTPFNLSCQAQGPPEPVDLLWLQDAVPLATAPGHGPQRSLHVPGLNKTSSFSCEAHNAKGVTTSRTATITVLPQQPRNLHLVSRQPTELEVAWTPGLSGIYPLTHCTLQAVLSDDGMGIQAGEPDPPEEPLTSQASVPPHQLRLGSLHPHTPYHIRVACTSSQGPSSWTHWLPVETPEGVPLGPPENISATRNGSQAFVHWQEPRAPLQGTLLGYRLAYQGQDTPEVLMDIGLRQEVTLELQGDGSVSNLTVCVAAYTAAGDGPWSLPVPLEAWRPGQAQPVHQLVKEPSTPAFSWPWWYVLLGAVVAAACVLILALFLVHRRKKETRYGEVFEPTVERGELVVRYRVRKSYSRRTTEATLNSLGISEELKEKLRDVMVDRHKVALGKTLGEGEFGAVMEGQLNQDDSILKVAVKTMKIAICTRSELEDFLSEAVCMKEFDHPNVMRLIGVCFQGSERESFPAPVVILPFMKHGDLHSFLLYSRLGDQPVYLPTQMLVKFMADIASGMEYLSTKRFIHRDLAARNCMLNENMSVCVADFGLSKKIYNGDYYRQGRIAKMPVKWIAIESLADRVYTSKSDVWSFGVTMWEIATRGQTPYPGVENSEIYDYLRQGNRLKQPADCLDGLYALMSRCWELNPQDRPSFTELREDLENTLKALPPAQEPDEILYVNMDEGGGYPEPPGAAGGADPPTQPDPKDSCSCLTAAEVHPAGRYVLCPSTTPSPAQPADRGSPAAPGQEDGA
Method: H1299 is a non-small cell lung cancer cell.
Test samples: the compounds of the present invention, having structures shown above.
Test instruments: protein electrophoresis apparatus (made by Bio Rad), membrane transfer apparatus (made by Bio Rad), exposure apparatus (made by Tanon), and CO2 cell incubator (made by Thermo).
H1299 cells were inoculated into a 6-well plate (containing 10% FBS 1640 medium, 5×10^5 cells per well) and adherently cultivated at 37° C. and 5% CO2 for 18 h. The cells were starved overnight, and compounds with different concentrations were added. The compounds had final concentrations of 1.1 nM, 3.3 nM, 10 nM and 30 nM, with DMSO having a final concentration of 1‰. There was a medium containing 10‰ DMSO in the negative control well. The cells were incubated at 37° C. and 5% CO2 for 60 min, and then hGAS6 (R&D, final concentration: 200 ng/mL) was added to each well. The cells were further incubated for 60 min, and then the total protein of the cells was extracted for Western Blot experiment. IC50 values were calculated with GraphPad 5.0 software, and the inhibitory activities of the compounds on cell pAxl were detected.

LCK (h) = molecular target: T2, LCK (h) (Homo sapiens, UniProt P06239); test: Enzymatic activity assay, LCK (h) kinase, [γ-33P]-ATP; type: biochemical; details: 10 μM [γ-33P]-ATP, 40 min, room temperature; read-out: Inhibitory Activity on LCK (h) kinase, IC50
T2 construct: purchased
Method: (§1) Test samples: the compounds of the present invention, having structures and preparation methods shown above.
Preparation of Compound Stock Solutions:
(§2) Compounds were each dissolved in 100% DMSO to prepare stock solutions with a maximum concentration of 500 μM.
Preparation of Compound Working Solutions:
(§3) The compound stock solutions were diluted to final concentrations of 500 μM, 150 μM, 50 μM, 15 μM, 5 μM, 1.5 μM, 0.5 μM, 0.15 μM and 0.05 μM to prepare compound working solutions (50×).
Preparation of Different Enzymatic Reaction Solutions:
LCK (h) enzyme was dissolved in a mixture of 50 mM Tris (pH 7.5), 0.1 mM EGTA, 0.1 mM Na3VO4 and 250 μM KVEKIGEGTYGVVYK to prepare an enzyme solution with a final concentration of 45 nM. An Mg/ATP mixture of 10 mM magnesium acetate and 10 μM [γ-^33P]-ATP was used to activate the enzymatic reaction.
(§4) The compound working solutions were added to a 384-well plate, with final concentrations of 10000 nM, 3000 nM, 1000 nM, 300 nM, 100 nM, 30 nM, 10 nM, 3 nM and 1 nM, respectively, and then different enzymatic reaction solutions prepared according to the above conditions were added. The reaction solutions were incubated at room temperature for 40 min, and then 0.5% phosphoric acid solutions were added to terminate the reaction. 10 μL of the reaction solution was added dropwise to P30 filter paper which was washed 4 times with a 0.425% phosphoric acid solution and once with methanol and then placed in a scintillation counter for detection. Gray analysis was performed on the results with Image J software, and IC50 values were calculated with GraphPad 5.0 software.

Axl (h) = molecular target: T3, Axl (h) (Homo sapiens, UniProt P30530); test: Enzymatic activity assay, Axl (h) kinase, [γ-33P]-ATP; type: biochemical; details: 10 μM [γ-33P]-ATP, 40 min, room temperature; read-out: Inhibitory Activity on Ax1 (h), IC50
T3 construct: purchased
T3 sequence (P30530 26-894): T1 sequence (P30530 26-894)
Method: as §1
(§5) (1) Preparation of Compound Stock Solutions
as §2
(§6) (2) Preparation of Compound Working Solutions
as §3
(3) Preparation of different enzymatic reaction solutions
Axl (h) enzyme was dissolved in a mixture of 8 mM MOPS (pH 7.0), 0.2 mM EDTA and 250 μM KKSRGDYMTMQIG to prepare an enzyme solution with a final concentration of 1.7 nM. An Mg/ATP mixture of 10 mM magnesium acetate and 10 μM [γ-^33P]-ATP was used to activate the enzymatic reaction.
as §4

Ron (h) = molecular target: T4, Ron (h) (Homo sapiens, UniProt Q04912); test: Enzymatic activity assay, Ron (h) kinase, [γ-33P]-ATP; type: biochemical; details: 10 μM [γ-33P]-ATP, 40 min, room temperature; read-out: Inhibitory Activity on Ron (h) kinase, IC50
T4 construct: purchased
Method: as §1, §5, §2, §6, §3
(3) Preparation of Different Enzymatic Reaction Solutions
Ron (h) enzyme was dissolved in a mixture of 8 mM MOPS (pH 7.0), 0.2 mM EDTA and 250 μM GGMEDIYFEFMGGKKK to prepare an enzyme solution with a final concentration of 40.4 nM. An Mg/ATP mixture of 10 mM magnesium acetate and 10 μM [γ-^33P]-ATP was used to activate the enzymatic reaction.
as §4

T2 sequence (P06239 whole entry): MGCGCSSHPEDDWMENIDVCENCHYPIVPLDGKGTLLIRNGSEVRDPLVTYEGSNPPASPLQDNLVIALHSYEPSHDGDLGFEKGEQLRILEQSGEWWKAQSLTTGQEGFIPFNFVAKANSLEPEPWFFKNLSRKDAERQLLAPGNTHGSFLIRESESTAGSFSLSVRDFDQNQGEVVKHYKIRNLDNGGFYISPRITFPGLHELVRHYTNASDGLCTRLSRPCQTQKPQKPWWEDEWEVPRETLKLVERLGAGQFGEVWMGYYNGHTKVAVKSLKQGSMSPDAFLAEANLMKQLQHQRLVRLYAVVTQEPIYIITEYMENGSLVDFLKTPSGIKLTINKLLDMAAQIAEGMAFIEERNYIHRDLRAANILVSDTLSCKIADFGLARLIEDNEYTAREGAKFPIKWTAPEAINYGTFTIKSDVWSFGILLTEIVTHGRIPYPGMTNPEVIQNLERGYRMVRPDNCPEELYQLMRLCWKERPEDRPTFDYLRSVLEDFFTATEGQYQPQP
T4 sequence (Q04912 25-1400): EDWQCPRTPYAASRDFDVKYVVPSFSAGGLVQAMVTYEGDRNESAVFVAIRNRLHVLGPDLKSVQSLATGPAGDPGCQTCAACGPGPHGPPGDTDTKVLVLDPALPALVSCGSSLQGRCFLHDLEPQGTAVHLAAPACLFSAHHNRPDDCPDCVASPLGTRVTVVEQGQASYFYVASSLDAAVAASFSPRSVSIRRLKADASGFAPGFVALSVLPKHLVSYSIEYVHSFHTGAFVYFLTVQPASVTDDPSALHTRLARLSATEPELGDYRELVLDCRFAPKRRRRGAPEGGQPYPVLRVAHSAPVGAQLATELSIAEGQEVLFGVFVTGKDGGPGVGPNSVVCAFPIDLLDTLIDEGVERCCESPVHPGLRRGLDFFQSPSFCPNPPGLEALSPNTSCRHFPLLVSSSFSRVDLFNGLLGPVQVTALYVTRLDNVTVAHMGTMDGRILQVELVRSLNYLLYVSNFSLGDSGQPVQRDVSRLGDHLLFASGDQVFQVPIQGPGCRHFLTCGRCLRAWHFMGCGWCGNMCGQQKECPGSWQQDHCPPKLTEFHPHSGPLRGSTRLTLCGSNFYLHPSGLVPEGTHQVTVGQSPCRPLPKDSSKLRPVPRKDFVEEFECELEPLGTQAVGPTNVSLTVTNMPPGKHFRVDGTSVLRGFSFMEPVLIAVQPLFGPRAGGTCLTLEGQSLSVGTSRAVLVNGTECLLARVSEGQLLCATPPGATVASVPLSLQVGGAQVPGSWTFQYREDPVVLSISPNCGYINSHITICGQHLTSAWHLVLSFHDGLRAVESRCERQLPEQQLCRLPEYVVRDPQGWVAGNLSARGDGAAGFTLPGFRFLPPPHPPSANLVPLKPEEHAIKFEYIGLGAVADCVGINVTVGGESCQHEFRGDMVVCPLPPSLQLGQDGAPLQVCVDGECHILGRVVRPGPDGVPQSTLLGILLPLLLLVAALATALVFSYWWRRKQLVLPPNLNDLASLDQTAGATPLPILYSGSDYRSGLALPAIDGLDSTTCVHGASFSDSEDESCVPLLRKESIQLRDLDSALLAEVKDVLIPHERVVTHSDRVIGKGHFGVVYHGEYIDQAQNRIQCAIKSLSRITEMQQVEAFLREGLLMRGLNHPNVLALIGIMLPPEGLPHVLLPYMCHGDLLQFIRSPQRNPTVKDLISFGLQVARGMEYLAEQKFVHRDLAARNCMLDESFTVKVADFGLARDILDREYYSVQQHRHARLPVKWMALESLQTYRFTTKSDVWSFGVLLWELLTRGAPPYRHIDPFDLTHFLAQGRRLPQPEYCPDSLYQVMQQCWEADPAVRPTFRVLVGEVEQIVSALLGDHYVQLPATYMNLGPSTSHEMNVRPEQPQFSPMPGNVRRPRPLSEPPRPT

SMILES	IC50 (H1299 cell pAxl) [nM]	IC50 (LCK (h)) [nM]	IC50 (Axl (h)) [nM]	IC50 (Ron (h)) [nM]
CC(C)n1cc(-c2ccc(F)cc2)c(=O)c(C(=O)Nc2ccc(Oc3cc4cnn(C)c4cc3-c3cn[nH]c3)cn2)n1 [Compound 1, 5-(4-fluorophenyl)-1-isopropyl-N-(5-((1-methyl-6-(1H-pyrazol-4-yl)-1H-indazol-5-yl)oxy)pyridin-2-yl)-4-oxo-1,4-dihydropyridazine-3-carboxamide]	1.1	–	–	–
CC(C)n1cc(-c2ccc(F)cc2)c(=O)c(C(=O)Nc2cnc(Oc3ccnc(N)c3Cl)nc2)n1 [Compound 16, N-(2-((2-amino-3-chloropyridin-4-yl)oxy)pyrimidin-5-yl)-5-(4-fluorophenyl)-1-isopropyl-4-oxo-1,4-dihydropyridazine-3-carboxamide]	–	579	16	–
Nc1nccc(Oc2ncc(NC(=O)c3nn(C4CC4)cc(-c4ccc(F)cc4)c3=O)cn2)c1Cl [Compound 20, N-(2-((2-amino-3-chloropyridin-4-yl)oxy)pyrimidin-5-yl)-1-cyclopropyl-5-(4-fluorophenyl)-4-oxo-1,4-dihydropyridazine-3-carboxamide]	10 to 30	2250	17	–

Results, then the compound that gave them:

IC50 (H1299 cell pAxl) [nM]	IC50 (LCK (h)) [nM]	IC50 (Axl (h)) [nM]	IC50 (Ron (h)) [nM]	SMILES
–	> 10000	30	92	CC(C)n1cc(C(=O)Nc2ccc(Oc3ccnc(N)c3Cl)nc2)c(=O)c(-c2ccc(F)cc2)n1 [Compound 23, N-(6-((2-amino-3-chloropyridin-4-yl)oxy)pyridin-3-yl)-6-(4-fluorophenyl)-2-isopropyl-5-oxo-2,5-dihydropyridazine-4-carboxamide]
–	1070	13	–	C=CCn1cc(-c2ccc(F)cc2)c(=O)c(C(=O)Nc2cnc(Oc3ccnc(N)c3Cl)nc2)n1 [Compound 40, 1-allyl-N-(2-((2-amino-3-chloropyridin-4-yl)oxy)pyrimidin-5-yl)-5-(4-fluorophenyl)-4-oxo-1,4-dihydropyridazine-3-carboxamide]
